Patent US7960376B2, “Benzo-fused heterocycles” (priority 2007, dated 2011)
One block for each molecule: values may come before it.

Tests used:
Assay type in all cases: cell-based
[1] = target: human CB2 receptor (hCB2) (Homo sapiens, UniProt P34972); experiment: cell-based; conditions: intracellular cAMP, CHO-K1 cells, NKH-477 prestimulated, + agonist, − inverse agonist
rat CB2 receptor (rCB2) = target: T1, rat CB2 receptor (rCB2) (Rattus norvegicus, UniProt Q9QZN9); experiment: cell-based; conditions: intracellular cAMP, CHO-K1 cells, NKH-477 prestimulated, + agonist, − inverse agonist
T1 sequence (Q9QZN9 1-360): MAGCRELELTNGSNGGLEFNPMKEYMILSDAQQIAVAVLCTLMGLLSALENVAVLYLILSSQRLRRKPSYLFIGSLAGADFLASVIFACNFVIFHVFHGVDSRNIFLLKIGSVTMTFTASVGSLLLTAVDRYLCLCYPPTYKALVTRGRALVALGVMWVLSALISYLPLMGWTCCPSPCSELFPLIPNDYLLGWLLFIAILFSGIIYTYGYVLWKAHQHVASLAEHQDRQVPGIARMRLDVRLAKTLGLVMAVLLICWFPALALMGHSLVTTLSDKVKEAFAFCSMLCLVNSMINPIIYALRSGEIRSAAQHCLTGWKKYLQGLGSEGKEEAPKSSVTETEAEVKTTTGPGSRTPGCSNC

[2] = target: human CB1 receptor (hCB1) (Homo sapiens, UniProt P21554); experiment: cAMP assay (LANCE TR-FRET) in CHO-K1 cells expressing hCB1; conditions: intracellular cAMP, NKH-477 prestimulated, + agonist, − inverse agonist
human CB1 receptor (hCB1), sequence (P21554 whole entry): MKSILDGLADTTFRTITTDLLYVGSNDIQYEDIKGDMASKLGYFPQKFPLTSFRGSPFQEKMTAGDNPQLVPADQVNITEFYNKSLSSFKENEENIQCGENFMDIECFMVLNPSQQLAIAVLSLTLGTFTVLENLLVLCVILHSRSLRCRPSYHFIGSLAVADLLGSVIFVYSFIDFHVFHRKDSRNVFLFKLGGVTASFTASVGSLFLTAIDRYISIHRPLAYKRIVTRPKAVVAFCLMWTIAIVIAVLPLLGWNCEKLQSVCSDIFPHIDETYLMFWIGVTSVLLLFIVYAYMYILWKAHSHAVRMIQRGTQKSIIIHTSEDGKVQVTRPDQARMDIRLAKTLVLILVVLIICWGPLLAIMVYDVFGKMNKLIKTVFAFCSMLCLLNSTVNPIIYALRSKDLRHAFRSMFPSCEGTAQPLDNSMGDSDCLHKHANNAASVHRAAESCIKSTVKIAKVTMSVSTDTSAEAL

human CB2 receptor (hCB2), sequence (P34972 whole entry): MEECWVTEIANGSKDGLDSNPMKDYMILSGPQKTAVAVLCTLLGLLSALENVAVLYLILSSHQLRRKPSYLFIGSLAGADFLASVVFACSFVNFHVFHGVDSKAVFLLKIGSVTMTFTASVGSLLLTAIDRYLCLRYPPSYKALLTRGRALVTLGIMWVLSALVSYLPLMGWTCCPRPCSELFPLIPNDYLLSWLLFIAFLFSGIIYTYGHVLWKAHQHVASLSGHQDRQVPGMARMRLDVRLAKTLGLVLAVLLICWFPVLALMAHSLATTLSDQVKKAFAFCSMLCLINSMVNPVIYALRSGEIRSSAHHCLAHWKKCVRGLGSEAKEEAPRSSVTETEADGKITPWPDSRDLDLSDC

Structure (SMILES): O=C(NC1CCCC1)c1ccc2c(c1)N(C(=O)c1ccccc1)CCS2 [Example 14, 4-benzoyl-N-cyclopentyl-3,4-dihydro-2H-benzo[b][1,4]thiazine-6-carboxamide]
hCB2 EC50 range [1]: −E
rCB2 EC50 range (rat CB2 receptor (rCB2)): −D
hCB1 EC50 range [2]: −E

Structure (SMILES): CCc1noc(-c2ccc3c(c2)N(S(=O)(=O)c2ccc(F)cc2)CCS3)n1 [Example 90, 3-ethyl-5-(4-(4-fluorophenylsulfonyl)-3,4-dihydro-2H-benzo[b][1,4]thiazin-6-yl)-1,2,4-oxadiazole]
hCB2 EC50 range [1]: +B
rCB2 EC50 range (rat CB2 receptor (rCB2)): +A
hCB1 EC50 range [2]: +D

Structure (SMILES): CC1(C)CCN(S(=O)(=O)c2ccc(F)cc2)c2cc(C(=O)N3CCOCC3)ccc2S1 [Example 100, (5-(4-fluorophenyl-sulfonyl)-2,2-dimethyl-2,3,4,5-tetrahydro-benzo[b][1,4]thiazepin-7-yl) (morpholino)-methanone]
hCB2 EC50 range [1]: +E
rCB2 EC50 range (rat CB2 receptor (rCB2)): +C
hCB1 EC50 range [2]: −E

Structure (SMILES): O=C(NC12CC3CC(CC(C3)C1)C2)c1ccc2c(c1)N(C(=O)c1ccccc1)CCS2 [Example 21, 4-benzoyl-N-(1-adamantyl)-3,4-dihydro-2H-benzo[b][1,4]thiazine-6-carboxamide]
hCB2 EC50 range [1]: −E
rCB2 EC50 range (rat CB2 receptor (rCB2)): −D
hCB1 EC50 range [2]: −E

Structure (SMILES): CCN(CC)C(=O)c1ccc2c(c1)N(S(=O)(=O)c1ccc(C(F)(F)F)cc1)CCS2 [Example 73, N,N-diethyl-4-(4-(trifluoromethyl)phenylsulfonyl)-3,4-dihydro-2H-benzo[b][1,4]thiazine-6-carboxamide]
hCB2 EC50 range [1]: +C
rCB2 EC50 range (rat CB2 receptor (rCB2)): +C
hCB1 EC50 range [2]: +E

Structure (SMILES): Cc1ccc(C(=O)N2CCSc3ccc(C(=O)NC45CC6CC(CC(C6)C4)C5)cc32)cc1 [Example 23, N-(1-adamantyl)-4-(4-methylbenzoyl)-3,4-dihydro-2H-benzo[b][1,4]thiazine-6-carboxamide]
hCB2 EC50 range [1]: −E
rCB2 EC50 range (rat CB2 receptor (rCB2)): −D
hCB1 EC50 range [2]: −E

Structure (SMILES): CC(C)C(=O)N1CCSc2ccc(C(=O)NC34CC5CC(CC(C5)C3)C4)cc21 [Example 40, N-(1-adamantyl)-4-isobutyryl-3,4-dihydro-2H-benzo[b][1,4]thiazine-6-carboxamide]
hCB2 EC50 range [1]: +D
rCB2 EC50 range (rat CB2 receptor (rCB2)): −D
hCB1 EC50 range [2]: −E

Structure (SMILES): COc1ccc(C(=O)N2CCSc3ccc(C(=O)NCC(C)C)cc32)cc1 [Example 5, N-isobutyl-4-(4-meth-oxybenzoyl)-3,4-di-hydro-2H-benzo[b] [1,4]thiazine-6-carboxamide]
hCB2 EC50 range [1]: −E
rCB2 EC50 range (rat CB2 receptor (rCB2)): −E
hCB1 EC50 range [2]: −E

Structure (SMILES): O=C(NC1CCCC1)c1ccc2c(c1)N(S(=O)(=O)c1ccc(Cl)cc1)CCO2 [Example 63, 4-(4-chlorophenylsulfonyl)-N-cyclopentyl-3,4-dihydro-2H-benzo[b][1,4]oxazine-6-carboxamide]
hCB2 EC50 range [1]: +B
rCB2 EC50 range (rat CB2 receptor (rCB2)): +A
hCB1 EC50 range [2]: +D

Structure (SMILES): COC(=O)[C@@H](NC(=O)c1ccc2c(c1)N(S(=O)(=O)c1ccccc1)CCC(C)(C)S2)C(C)(C)C [Example 95, (S)-methyl 2-(2,2-dimethyl-5-(phenyl-sulfonyl)-2,3,4,5-tetrahydrobenzo[b][1,4]thiazepine-7-carboxamido)-3,3-dimethylbutanoate]
hCB2 EC50 range [1]: +D
hCB1 EC50 range [2]: −D

Structure (SMILES): CCc1noc(-c2ccc3c(c2)N(S(=O)(=O)c2ccc(C(F)(F)F)cc2)CCS3)n1 [Example 89, 3-ethyl-5-(4-(4-(trifluoromethyl)phenylsulfonyl)-3,4-dihydro-2H-benzo[b][1,4]thiazin-6-yl)-1,2,4-oxadiazole]
hCB2 EC50 range [1]: +B
rCB2 EC50 range (rat CB2 receptor (rCB2)): +A
hCB1 EC50 range [2]: +D

Structure (SMILES): O=S(=O)(c1ccc(C(F)(F)F)cc1)N1CCSc2ccc(-c3nc4ccccc4o3)cc21 [Example 109, 2-(4-(4-(trifluoromethyl)phenylsulfonyl)-3,4-dihydro-2H-benzo[b][1,4]thiazin-6-yl)benzo[d]oxazole]
hCB2 EC50 range [1]: +C
rCB2 EC50 range (rat CB2 receptor (rCB2)): +B
hCB1 EC50 range [2]: +D

Structure (SMILES): O=S(=O)(c1ccc(F)cc1)N1CCSc2ccc(-c3nc(-c4ccccn4)no3)cc21 [Example 83, 5-(4-(4-fluorophenylsulfonyl)-3,4-dihydro-2H-benzo[b][1,4]thiazin-6-yl)-3-(pyridin-2-yl)-1,2,4-oxadiazole]
hCB2 EC50 range [1]: +C
rCB2 EC50 range (rat CB2 receptor (rCB2)): +B
hCB1 EC50 range [2]: +D

Structure (SMILES): CC1(C)CCN(S(=O)(=O)c2ccc(F)cc2)c2cc(C(=O)NC3CCCC3)ccc2S1 [Example 101, N-cyclopentyl-5-(4-fluorophenylsulfonyl)-2,2-dimethyl-2,3,4,5-tetrahydrobenzo[b][1,4] thiazepine-7-carboxamide]
hCB2 EC50 range [1]: +E
rCB2 EC50 range (rat CB2 receptor (rCB2)): −C
hCB1 EC50 range [2]: −E

Structure (SMILES): CC(C)(C)c1noc(-c2ccc3c(c2)N(S(=O)(=O)c2ccc(F)cc2)CCS3)n1 [Example 85, 3-tert-butyl-5-(4-(4-fluorophenylsulfonyl)-3,4-dihydro-2H-benzo[b][1,4]thiazin-6-yl)-1,2,4-oxadiazole]
hCB2 EC50 range [1]: +B
rCB2 EC50 range (rat CB2 receptor (rCB2)): +B
hCB1 EC50 range [2]: +D

Structure (SMILES): CC(C)CNC(=O)c1ccc2c(c1)N(S(=O)(=O)c1ccc(F)cc1)CCS2 [Example 43, 4-(4-fluorophenylsulfonyl)-N-isobutyl-3,4-dihydro-2H-benzo[b][1,4]thiazine-6-carboxamide]
hCB2 EC50 range [1]: +B
rCB2 EC50 range (rat CB2 receptor (rCB2)): +A
hCB1 EC50 range [2]: +D

Structure (SMILES): O=C(NC12CC3CC(CC(C3)C1)C2)c1ccc2c(c1)N(C(=O)c1ccc(F)cc1)CCS2 [Example 22]
hCB2 EC50 range [1]: −E
rCB2 EC50 range (rat CB2 receptor (rCB2)): −D
hCB1 EC50 range [2]: −E

Structure (SMILES): O=S(=O)(c1ccc(F)cc1)N1CCSc2ccc(-c3nnc(-c4ccccc4)o3)cc21 [Example 104, 2-(4-(4-fluorophenylsulfonyl)-3,4-dihydro-2H-benzo[b][1,4]thiazin-6-yl)-5-phenyl-1,3,4-oxadiazole]
hCB2 EC50 range [1]: +C
rCB2 EC50 range (rat CB2 receptor (rCB2)): +B
hCB1 EC50 range [2]: +D

Structure (SMILES): CC(C)(C)NC(=O)c1ccc2c(c1)N(S(=O)(=O)c1ccc(F)cc1)CCS2 [Example 47, N-tert-butyl-4-(4-fluorophenylsulfonyl)-3,4-dihydro-2H-benzo[b][1,4]thiazine-6-carboxamide]
hCB2 EC50 range [1]: +B
rCB2 EC50 range (rat CB2 receptor (rCB2)): +A
hCB1 EC50 range [2]: +E

Structure (SMILES): CNC(=O)[C@@H](NC(=O)c1ccc2c(c1)N(S(=O)(=O)c1ccc(F)cc1)CCC(C)(C)S2)C(C)(C)C [Example 103, (S)-N-(3,3-dimethyl-1-(methylamino)-1-oxobutan-2-yl)-5-(4-fluorophenyl-sulfonyl)-2,2-dimethyl-2,3,4,5-tetrahydrobenz0-[b][1,4]thiazepine-7-carboxamide]
hCB2 EC50 range [1]: +D
rCB2 EC50 range (rat CB2 receptor (rCB2)): +C
hCB1 EC50 range [2]: −E

Structure (SMILES): O=S(=O)(c1ccc(C(F)(F)F)cc1)N1CCSc2ccc(-c3nnc(-c4ccccc4)o3)cc21 [Example 105, 2-phenyl-5-(4-(4-(trifluoromethyl)phenylsulfonyl)-3,4-dihydro-2H-benzo[b][1,4]thiazin-6-yl)-1,3,4-oxadiazole]
hCB2 EC50 range [1]: +C
rCB2 EC50 range (rat CB2 receptor (rCB2)): +A
hCB1 EC50 range [2]: +D

Structure (SMILES): CC(C)(C)CNC(=O)c1ccc2c(c1)N(S(=O)(=O)c1ccccc1)CCC(C)(C)S2 [Example 96, 2,2-dimethyl-N-neo-pentyl-5-(phenyl-sulfonyl)-2,3,4,5-tetrahydrobenzo[b][1,4] thiazepine-7-carboxamide]
hCB2 EC50 range [1]: +D
hCB1 EC50 range [2]: −D

EC50 ([1]; read-out: hCB2 EC50 range): > 10 µM
EC50 (rat CB2 receptor (rCB2); read-out: rCB2 EC50 range): > 10 µM
EC50 ([2]; read-out: hCB1 EC50 range): > 10 µM
Structure (SMILES): Cc1ccc(C(=O)N2CCSc3ccc(C(=O)NC4CCCC4)cc32)cc1 [Example 13, N-cyclopentyl-4-(4-methylbenzoyl)-3,4-dihydro-2H-benzo[b] [1,4]thiazine-6-carboxamide]

Structure (SMILES): CC(C)(C)c1noc(-c2ccc3c(c2)N(S(=O)(=O)c2ccccc2)CCS3)n1 [Example 84]
hCB2 EC50 range [1]: +C
rCB2 EC50 range (rat CB2 receptor (rCB2)): +A
hCB1 EC50 range [2]: +E

Structure (SMILES): CC(C)CNC(=O)c1ccc2c(c1)N(C(=O)c1ccc(Cl)cc1)CCS2 [Example 1, 4-(4-chlorobenzoyl)-N-isobutyl-3,4-dihydro-2H-benzo[b][1,4]thiazine-6-carboxamide]
hCB2 EC50 range [1]: −E
hCB1 EC50 range [2]: −E

Structure (SMILES): C[C@H](NC(=O)c1ccc2c(c1)N(S(=O)(=O)c1ccccc1)CCC(C)(C)S2)C(C)(C)C [Example 98, (S)-N-(3,3-dimethyl-butan-2-yl)-2,2-dimethyl-5-(phenyl-sulfonyl)-2,3,4,5-tetrahydrobenzo[b][1,4] thiazepine-7-carboxamide]
hCB2 EC50 range [1]: +D
rCB2 EC50 range (rat CB2 receptor (rCB2)): −E
hCB1 EC50 range [2]: −D

Structure (SMILES): Cc1ccc(C(=O)N2CCSc3ccc(C(=O)NCC(C)C)cc32)cc1 [Example 4, N-isobutyl-4-(4-methylbenzoyl)-3,4-dihydro-2H-benzo[b][1,4] thiazine-6-carboxamide]
hCB2 EC50 range [1]: −E
hCB1 EC50 range [2]: −E
